Test results published in article PMC6378217, “The lysyl oxidase like 2/3 enzymatic inhibitor, PXS‐5153A, reduces crosslinks and ameliorates fibrosis” (Journal of Cellular and Molecular Medicine, 2018).

How the values were obtained:
Recombinant human LOXL1 = target: T1, Recombinant human LOXL1 (Homo sapiens, UniProt Q08397); assay: Amplex-Red fluorometric enzymatic activity assay, recombinant human LOXL1; format: biochemical; details: 30 minute pre-incubation; average of at least three experiments
T1 construct: made in house
T1 sequence (Q08397 96-574): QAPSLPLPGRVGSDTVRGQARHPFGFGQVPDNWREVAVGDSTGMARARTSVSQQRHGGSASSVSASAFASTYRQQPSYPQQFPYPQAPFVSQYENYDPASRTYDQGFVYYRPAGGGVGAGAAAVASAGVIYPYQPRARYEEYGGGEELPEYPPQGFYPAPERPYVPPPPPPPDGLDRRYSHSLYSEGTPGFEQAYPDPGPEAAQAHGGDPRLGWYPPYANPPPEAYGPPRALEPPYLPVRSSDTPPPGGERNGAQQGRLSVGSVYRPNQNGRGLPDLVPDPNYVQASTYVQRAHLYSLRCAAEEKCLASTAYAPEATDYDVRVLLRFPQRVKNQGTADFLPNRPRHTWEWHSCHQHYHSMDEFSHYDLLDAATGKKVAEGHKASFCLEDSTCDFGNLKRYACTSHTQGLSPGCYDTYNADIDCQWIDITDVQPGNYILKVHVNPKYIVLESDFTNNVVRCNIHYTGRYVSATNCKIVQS
Procedure: (§1) The measurement of the enzymatic activity of all lysyl oxidase family members was based on the detection of hydrogen peroxide with an Amplex‐Red oxidation assay, as described in Zhou et al26 Recombinant human semicarbazide sensitive amine oxidase (SSAO/VAP1), diamine oxidase (DAO) and monoamine oxidases A and B (MAO‐A and MAO‐B) assays were performed as previously described.27 For detailed enzymatic procedures, see supporting information.
The measurement of the enzymatic activity of all lysyl oxidase family members was based on the detection of hydrogen peroxide with an Amplex-Red oxidation assay, as described in Zhou et al.[1]; miniaturised in 384 well format, with the appropriate combination of substrate and assay buffer for each individual enzyme. After a 30 minute pre-incubation of the enzyme at 37 °C with the test compound (or with different incubation times for the time-dependency assay), one volume of reaction mixture containing 120 μM Amplex Red (AR) (Life Technologies), 1.5 U/mL horseradish peroxidase (HRP) (Sigma-Aldrich) and the specific substrate was added to each sample. The relative fluorescence units (RFU) were then measured every 2.5 minutes for 30 minutes at 37°C, excitation 565 nm and emission 590, on a BMG Clariostar Microplate Reader. […]

[1] = target: Recombinant human semicarbazide sensitive amine oxidase (SSAO/VAP1) (Homo sapiens, UniProt Q16853); assay: SSAO/VAP1 enzymatic activity assay; format: biochemical
Chain of Recombinant human semicarbazide sensitive amine oxidase (SSAO/VAP1) (Q16853 whole entry): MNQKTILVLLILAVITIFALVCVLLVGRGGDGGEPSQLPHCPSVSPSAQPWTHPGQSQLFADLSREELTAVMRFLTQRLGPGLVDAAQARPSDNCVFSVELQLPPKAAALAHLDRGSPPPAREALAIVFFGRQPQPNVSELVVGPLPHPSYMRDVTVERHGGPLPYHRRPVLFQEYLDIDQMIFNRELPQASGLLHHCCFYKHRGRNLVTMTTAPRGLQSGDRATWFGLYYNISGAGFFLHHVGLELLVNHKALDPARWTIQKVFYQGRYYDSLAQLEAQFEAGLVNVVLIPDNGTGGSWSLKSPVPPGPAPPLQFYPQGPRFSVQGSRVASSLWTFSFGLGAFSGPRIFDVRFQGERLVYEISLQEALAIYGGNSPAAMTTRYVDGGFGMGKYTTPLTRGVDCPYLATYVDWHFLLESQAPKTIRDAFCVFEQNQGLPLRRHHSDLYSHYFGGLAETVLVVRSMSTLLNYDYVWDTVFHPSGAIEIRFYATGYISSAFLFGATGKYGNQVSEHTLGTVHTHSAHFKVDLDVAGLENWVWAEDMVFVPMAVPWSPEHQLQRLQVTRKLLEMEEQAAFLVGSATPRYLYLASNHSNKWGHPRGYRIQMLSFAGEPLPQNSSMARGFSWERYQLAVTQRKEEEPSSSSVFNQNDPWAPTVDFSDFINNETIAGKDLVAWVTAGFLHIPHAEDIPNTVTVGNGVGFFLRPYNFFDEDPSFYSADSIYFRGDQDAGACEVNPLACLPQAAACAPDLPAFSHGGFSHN
Procedure: as §1
Recombinant human semicarbazide sensitive amine oxidase (SSAO/VAP1), diamine oxidase (DAO) and monoamine oxidases A and B (MAO-A and MAO-B) assays were performed as previously described.

Cannabinoid CB1 = Cannabinoid CB1 (Homo sapiens, UniProt P21554); assay: Eurofins Hit Profiling Screen; format: binding; details: 10 μmol/L
Chain of Cannabinoid CB1 (P21554 whole entry): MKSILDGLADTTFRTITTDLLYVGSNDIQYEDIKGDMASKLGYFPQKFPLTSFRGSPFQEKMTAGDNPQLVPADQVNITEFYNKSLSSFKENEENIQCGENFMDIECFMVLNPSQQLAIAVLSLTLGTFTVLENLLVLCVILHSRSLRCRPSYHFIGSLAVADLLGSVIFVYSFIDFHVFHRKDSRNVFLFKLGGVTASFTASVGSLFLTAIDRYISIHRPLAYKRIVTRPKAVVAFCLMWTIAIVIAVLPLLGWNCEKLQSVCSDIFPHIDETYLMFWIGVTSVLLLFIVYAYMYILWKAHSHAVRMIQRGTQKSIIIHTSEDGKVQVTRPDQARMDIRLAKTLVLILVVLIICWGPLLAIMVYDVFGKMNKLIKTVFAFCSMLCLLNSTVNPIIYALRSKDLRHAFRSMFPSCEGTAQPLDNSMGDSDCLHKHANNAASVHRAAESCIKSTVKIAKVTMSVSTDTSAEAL

GABAA, Muscimol, Central = assay: Eurofins Hit Profiling Screen; format: binding; details: 10 μmol/L
Opiate μ (OP3, MOP) = Opiate μ (OP3, MOP) (Homo sapiens, UniProt P35372); assay: Eurofins Hit Profiling Screen; format: binding; details: 10 μmol/L
Chain of Opiate μ (OP3, MOP) (P35372 whole entry): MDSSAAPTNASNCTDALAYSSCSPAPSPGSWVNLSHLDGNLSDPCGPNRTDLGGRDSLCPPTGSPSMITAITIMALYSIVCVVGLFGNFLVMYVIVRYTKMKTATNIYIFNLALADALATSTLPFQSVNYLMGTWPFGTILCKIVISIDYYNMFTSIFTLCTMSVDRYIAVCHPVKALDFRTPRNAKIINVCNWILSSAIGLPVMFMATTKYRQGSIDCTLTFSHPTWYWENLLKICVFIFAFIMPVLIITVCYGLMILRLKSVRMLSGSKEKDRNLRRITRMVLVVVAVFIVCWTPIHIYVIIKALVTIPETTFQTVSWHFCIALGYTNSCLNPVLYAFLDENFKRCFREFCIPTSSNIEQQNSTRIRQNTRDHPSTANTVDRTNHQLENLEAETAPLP

[2] = target: Transporter, Norepinephrine (NET) (Homo sapiens, UniProt P23975); assay: Eurofins Hit Profiling Screen; format: binding; details: 10 μmol/L
Chain of Transporter, Norepinephrine (NET) (P23975 whole entry): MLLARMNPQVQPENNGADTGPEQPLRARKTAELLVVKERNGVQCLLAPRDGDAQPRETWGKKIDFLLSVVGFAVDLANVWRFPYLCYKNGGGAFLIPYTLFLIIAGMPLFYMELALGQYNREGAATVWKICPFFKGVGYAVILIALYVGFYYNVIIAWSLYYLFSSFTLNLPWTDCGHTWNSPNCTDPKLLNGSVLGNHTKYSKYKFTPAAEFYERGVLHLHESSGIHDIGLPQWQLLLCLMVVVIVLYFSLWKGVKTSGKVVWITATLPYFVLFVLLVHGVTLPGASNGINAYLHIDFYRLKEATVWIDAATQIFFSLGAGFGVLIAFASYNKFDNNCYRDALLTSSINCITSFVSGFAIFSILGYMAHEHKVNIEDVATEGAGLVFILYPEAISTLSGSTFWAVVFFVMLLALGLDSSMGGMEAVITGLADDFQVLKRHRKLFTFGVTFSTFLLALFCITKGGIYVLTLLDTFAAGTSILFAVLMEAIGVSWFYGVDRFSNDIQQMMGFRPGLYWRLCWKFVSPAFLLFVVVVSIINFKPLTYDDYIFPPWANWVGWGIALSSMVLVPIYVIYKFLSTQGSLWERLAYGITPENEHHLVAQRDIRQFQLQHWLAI

Myocardial infarction = Myocardial infarction (left coronary artery occlusion); format: in vivo, C57/BL6 mice; details: 25 mg/kg q.d., p.o., 4 weeks; compared to infarcted untreated animals
Procedure: The study was performed by CL Laboratory (Baltimore, USA) with approval from the Institutional Animal Care and Use Committee. Myocardial infarction (MI) was induced in C57/BL6 mice by occluding the left coronary artery. The same surgery but without occluding the left coronary artery was used as a sham control. At 24 hours post‐surgery, animals received echocardiography. Infarcted mice with high cardiac function (FS > 40%) or low cardiac function (FS < 10%) were excluded from the study. The remaining mice were treated q.d., p.o., with 25 mg/kg of PXS‐5153A for 4 weeks. At the end of the experiment, echocardiography was performed on mice to assess left ventricular function and remodelling, followed by heart collection. The heart was fixed with 10% formalin. Fibrosis was assessed in the non‐infarct area. Fibrotic blue area and whole non‐infarct area were measured using computerized planimetry (Image J). The fibrotic area was presented as a percentage of the whole non‐infarct area. Three random fields per heart were counted, averaged and a total of 30‐45 fields per group were measured.

LOXL2 = target: T2, LOXL2 (Homo sapiens, UniProt Q9Y4K0); assay: Amplex-Red fluorometric enzymatic activity assay, recombinant human LOXL2; format: biochemical; design: purchased R&D Systems
T2 sequence (Q9Y4K0 26-774): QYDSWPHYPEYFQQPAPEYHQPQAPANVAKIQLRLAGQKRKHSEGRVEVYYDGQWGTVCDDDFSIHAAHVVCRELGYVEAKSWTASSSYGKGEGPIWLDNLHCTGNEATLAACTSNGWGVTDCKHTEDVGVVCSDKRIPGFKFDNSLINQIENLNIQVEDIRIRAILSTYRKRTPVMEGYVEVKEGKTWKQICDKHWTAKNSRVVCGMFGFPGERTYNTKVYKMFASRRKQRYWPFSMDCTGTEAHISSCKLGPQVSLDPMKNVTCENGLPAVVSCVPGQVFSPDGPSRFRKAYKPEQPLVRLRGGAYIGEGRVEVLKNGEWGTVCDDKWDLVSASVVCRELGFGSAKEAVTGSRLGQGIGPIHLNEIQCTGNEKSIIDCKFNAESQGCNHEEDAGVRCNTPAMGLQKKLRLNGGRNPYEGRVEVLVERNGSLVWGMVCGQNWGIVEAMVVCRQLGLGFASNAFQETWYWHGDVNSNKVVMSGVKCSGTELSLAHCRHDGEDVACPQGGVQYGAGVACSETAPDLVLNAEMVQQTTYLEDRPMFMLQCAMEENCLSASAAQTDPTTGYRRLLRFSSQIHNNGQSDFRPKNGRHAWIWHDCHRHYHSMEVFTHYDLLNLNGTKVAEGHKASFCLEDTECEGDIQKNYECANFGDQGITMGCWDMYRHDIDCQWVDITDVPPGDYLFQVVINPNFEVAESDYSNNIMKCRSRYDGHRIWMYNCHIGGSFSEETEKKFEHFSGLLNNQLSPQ
Procedure: as §1
The measurement of the enzymatic activity of all lysyl oxidase family members was based on the detection of hydrogen peroxide with an Amplex-Red oxidation assay, as described in Zhou et al.[1]; miniaturised in 384 well format, with the appropriate combination of substrate and assay buffer for each individual enzyme. After a 30 minute pre-incubation of the enzyme at 37 °C with the test compound (or with different incubation times for the time-dependency assay), one volume of reaction mixture containing 120 μM Amplex Red (AR) (Life Technologies), 1.5 U/mL horseradish peroxidase (HRP) (Sigma-Aldrich) and the specific substrate was added to each sample. The relative fluorescence units (RFU) were then measured every 2.5 minutes for 30 minutes at 37°C, excitation 565 nm and emission 590, on a BMG Clariostar Microplate Reader. All the substrates were used at concentrations corresponding to their Km towards the corresponding enzyme, or with a range of different concentrations for the substrate competition experiments.
Lysyl oxidases assay buffer contained 1.2 M urea, 50 mM sodium borate buffer, pH 8.2 and 100 µM β-aminoproprionitrile (BAPN, Sigma-Aldrich) was used for low control.
Recombinant human LOXL1 was expressed and purified from cDNA (GeneArt) and 10 mM putrescine was used as substrate. Recombinant human and mouse LOXL2 (R&D Systems) were challenged with 5 mM putrescine (Sigma-Aldrich) as the substrate. Rat and dog recombinant LOXL2 were amplified and purified in house from HEK-293 clones kindly provided by Dr. Fernando Rodríguez Pascual, Madrid University, and used in the same conditions as for the human form. 2 mM putrescine was used as the substrate for recombinant human LOXL3 (R&D Systems) and LOXL4 (Dr. Fernando Rodríguez Pascual, university of Madrid, Spain) assays.

[3] = 30 minute pre-incubation at 37 °C, average of at least three experiments

Structure (SMILES): Cc1c(-c2cccc(S(=O)(=O)N(C)C)c2)c2ncccc2n1C/C(F)=C/CN.Cl.Cl [PXS-5153A]
- IC50 (Recombinant human LOXL1): 1410 nM
- pIC50 ± SD (Recombinant human LOXL1): 5.8 ± 0.23
- IC50 [1]: > 30000 nM
- % inhibition (Cannabinoid CB1): 17%
- % inhibition (GABAA, Muscimol, Central): -7%
- % inhibition (Opiate μ (OP3, MOP)): 11%
- % inhibition [2]: 15%
- ejection fraction (Myocardial infarction): improvement
- fractional shortening (Myocardial infarction): improvement
- percentage fibrotic coverage area (Myocardial infarction): decrease
- IC50 (LOXL2; [3]): 21 nM
- pIC50 ± SD (LOXL2; [3]): 7.7 ± 0.23
- selectivity for LOXL2 over LOX (LOXL2; LOXL2 over LOX): > 40 fold
- selectivity for LOXL2 over LOXL1 (LOXL2; LOXL2 over LOXL1): > 40 fold
- selectivity over other related amine oxidases (LOXL2; LOXL2 over other related amine oxidases): > 700 fold
- rate of inactivation (kinact) (LOXL2; mechanism-based irreversible inhibition, enzyme not given): 0.20 min⁻¹
- Ki (LOXL2; mechanism-based irreversible inhibition, enzyme not given, read-out: apparent binding constant (Ki)): 1010 nM
